Measured values from ChEMBL document CHEMBL2176988 (J Med Chem, 2012).
Active and inactive are the calls of the source. The rule behind the calls is not given here.

Tests used:
[1] = target: T1, Neuronal acetylcholine receptor; alpha3/beta4 (Homo sapiens, UniProt P30926+P32297); test: Displacement of [3H]epibatidine from human alpha3beta4 nAChR expressed in CHO cells after 2 hrs by liquid scintillation counting; type: cell-based
[2] = target: T2, Neuronal acetylcholine receptor; alpha4/beta2 (Homo sapiens, UniProt P17787+P43681); test: Displacement of [3H]nicotine from alpha4beta2 nAChR in human SH-EP1 cells after 2 hrs by liquid scintillation assay; type: cell-based
[3] = target: T2, Neuronal acetylcholine receptor; alpha4/beta2; test: Partial agonist activity at alpha4beta2 nAChR in human SH-EP1 cells assessed as calcium flux by calcium4-based FLIPR assay relative to nicotine; type: functional, cell-based
[4] = target: T1, Neuronal acetylcholine receptor; alpha3/beta4; test: Agonist activity at human alpha3beta4 nAChR expressed in CHO cells assessed as calcium flux by calcium4-based FLIPR assay; type: functional, cell-based
[5] = target: T2, Neuronal acetylcholine receptor; alpha4/beta2; test: Partial agonist activity at alpha4beta2 nAChR in human SH-EP1 cells assessed as calcium flux by calcium4-based FLIPR assay; type: functional, cell-based
[6] = target: T1, Neuronal acetylcholine receptor; alpha3/beta4; test: Agonist activity at human alpha3beta4 nAChR expressed in CHO cells assessed as calcium flux by calcium4-based FLIPR assay relative to nicotine; type: functional, cell-based
[7] = target: Neuronal acetylcholine receptor; alpha4/beta2 (Rattus norvegicus, UniProt P09483+P12390); test: Displacement of [3H]epibatidine from alpha4beta2 nAChR in Sprague-Dawley rat cortex after 2 hrs by liquid scintillation counting
[8] = target: Neuronal acetylcholine receptor subunit alpha-7 (Homo sapiens, UniProt P36544); test: Displacement of [3H]epibatidine from human alpha7 nAChR expressed in CHO cells after 2 hrs by liquid scintillation counting; type: cell-based
[9] = target: T2, Neuronal acetylcholine receptor; alpha4/beta2; test: Displacement of [3H]methylcarbamylcholine from alpha4beta2 nAChR; type: protein-complex assay
[10] = target: Acetylcholine receptor; alpha1/beta1/delta/gamma (Homo sapiens) (UniProt P02708+P07510+P11230+Q07001); test: Agonist activity at alpha1beta1gammadelta nAChR; type: functional
[11] = target: T3, 5-hydroxytryptamine receptor 3A (Mus musculus) (UniProt P23979); test: Inhibition of mouse 5HT3 receptor at 10 uM
T3 sequence (whole entry): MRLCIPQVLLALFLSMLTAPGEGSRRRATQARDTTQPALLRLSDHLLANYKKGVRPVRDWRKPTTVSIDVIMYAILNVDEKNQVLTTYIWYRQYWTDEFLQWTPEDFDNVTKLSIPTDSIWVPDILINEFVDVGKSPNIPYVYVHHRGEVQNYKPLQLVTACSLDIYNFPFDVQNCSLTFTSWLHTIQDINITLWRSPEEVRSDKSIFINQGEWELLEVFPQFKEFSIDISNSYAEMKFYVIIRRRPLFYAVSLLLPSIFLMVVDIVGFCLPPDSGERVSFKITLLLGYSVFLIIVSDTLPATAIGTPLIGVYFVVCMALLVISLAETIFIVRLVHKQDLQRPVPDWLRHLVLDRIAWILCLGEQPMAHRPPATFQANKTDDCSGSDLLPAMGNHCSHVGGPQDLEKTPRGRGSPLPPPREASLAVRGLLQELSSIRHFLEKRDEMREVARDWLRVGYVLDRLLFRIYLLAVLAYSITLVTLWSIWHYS

[12] = target: T2, Neuronal acetylcholine receptor; alpha4/beta2; test: Agonist activity at alpha4beta2 nAChR in human SH-EP1 cells assessed as calcium flux by calcium4-based FLIPR assay relative to nicotine; type: functional, cell-based
hERG (KCNH2) = hERG (KCNH2) (Homo sapiens, UniProt Q12809); test: Inhibition of human ERG at 10 uM
[13] = target: T4, 5-hydroxytryptamine receptor 3A (Homo sapiens) (UniProt P46098); test: Inhibition of human 5HT3 receptor at 10 uM
T4 sequence (whole entry): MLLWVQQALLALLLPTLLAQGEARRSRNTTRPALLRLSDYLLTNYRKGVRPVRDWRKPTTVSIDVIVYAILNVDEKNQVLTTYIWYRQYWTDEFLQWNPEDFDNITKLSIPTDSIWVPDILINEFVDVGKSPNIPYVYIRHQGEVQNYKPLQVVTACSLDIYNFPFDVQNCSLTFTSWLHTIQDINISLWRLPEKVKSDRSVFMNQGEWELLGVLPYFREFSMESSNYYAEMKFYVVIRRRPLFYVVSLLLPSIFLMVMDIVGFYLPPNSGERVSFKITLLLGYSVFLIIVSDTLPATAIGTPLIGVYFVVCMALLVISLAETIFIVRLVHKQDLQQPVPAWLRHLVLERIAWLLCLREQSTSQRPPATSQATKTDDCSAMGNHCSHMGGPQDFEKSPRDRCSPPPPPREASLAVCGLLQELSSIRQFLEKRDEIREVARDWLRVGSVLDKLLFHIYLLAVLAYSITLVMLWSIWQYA

[14] = target: T5, 5-hydroxytryptamine receptor 3A (Homo sapiens, UniProt P46098); test: Inhibition of human 5HT3 receptor
T5 sequence (P46098 whole entry): T4 sequence (whole entry)

[15] = target: T2, Neuronal acetylcholine receptor; alpha4/beta2; test: Agonist activity at alpha4beta2 nAChR in human SH-EP1 cells assessed as calcium flux by calcium4-based FLIPR assay; type: functional, cell-based
[16] = Agonist activity at ganglion nAChR; type: functional
Rattus norvegicus [17] = test: Procognitive activity in Sprague-Dawley rat assessed as recognition index at 0.1 mg/kg, po administered QD for 3 days 30 mins prior to testing by novel object recognition test (reference value: 50%); type: functional
Cytochrome P450 2D6 = Cytochrome P450 2D6 (Homo sapiens, UniProt P10635); test: Inhibition of CYP2D6; type: ADME
Rattus norvegicus [18] = test: Procognitive activity in Sprague-Dawley rat assessed as increase in working memory at 0.1 to 0.3 mg/kg, po administered QD for 3 days 30 mins prior to testing by novel object recognition test; type: functional, organism-based
[19] = target: T2, Neuronal acetylcholine receptor; alpha4/beta2; test: Binding affinity to alpha4beta2 nAChR; type: protein-complex assay
Rattus norvegicus [20] = test: Procognitive activity in Sprague-Dawley rat assessed as increase in working memory at 0.3 to 3 mg/kg, po administered QD for 3 days 30 mins prior to testing by novel object recognition test; type: functional, organism-based
[21] = target: T4, 5-hydroxytryptamine receptor 3A (Homo sapiens); test: Inhibition of 5HT3 receptor at 10 uM
Rattus norvegicus [22] = test: Procognitive activity in Sprague-Dawley rat assessed as increase in working memory at 1 mg/kg, po administered QD for 3 days 30 mins prior to testing by novel object recognition test (reference value: 51%); type: functional
[23] = Inhibition of adrenergic alpha2 receptor at 10 uM

Chain of Neuronal acetylcholine receptor subunit alpha-7 (P36544 whole entry): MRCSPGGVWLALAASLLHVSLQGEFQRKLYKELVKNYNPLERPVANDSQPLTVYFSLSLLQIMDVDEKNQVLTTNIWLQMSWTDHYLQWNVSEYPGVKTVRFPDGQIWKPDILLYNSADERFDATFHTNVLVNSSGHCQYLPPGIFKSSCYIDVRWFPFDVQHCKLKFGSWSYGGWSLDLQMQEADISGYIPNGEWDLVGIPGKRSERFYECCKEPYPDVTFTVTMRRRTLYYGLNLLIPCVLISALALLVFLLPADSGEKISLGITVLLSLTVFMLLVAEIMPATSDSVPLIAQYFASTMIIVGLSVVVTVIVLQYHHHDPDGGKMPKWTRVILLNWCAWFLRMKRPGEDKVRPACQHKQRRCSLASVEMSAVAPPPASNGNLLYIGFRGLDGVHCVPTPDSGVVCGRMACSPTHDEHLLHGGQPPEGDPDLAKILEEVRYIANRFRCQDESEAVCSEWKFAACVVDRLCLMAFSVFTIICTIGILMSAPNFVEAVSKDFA
T1 sequence (P30926 whole entry): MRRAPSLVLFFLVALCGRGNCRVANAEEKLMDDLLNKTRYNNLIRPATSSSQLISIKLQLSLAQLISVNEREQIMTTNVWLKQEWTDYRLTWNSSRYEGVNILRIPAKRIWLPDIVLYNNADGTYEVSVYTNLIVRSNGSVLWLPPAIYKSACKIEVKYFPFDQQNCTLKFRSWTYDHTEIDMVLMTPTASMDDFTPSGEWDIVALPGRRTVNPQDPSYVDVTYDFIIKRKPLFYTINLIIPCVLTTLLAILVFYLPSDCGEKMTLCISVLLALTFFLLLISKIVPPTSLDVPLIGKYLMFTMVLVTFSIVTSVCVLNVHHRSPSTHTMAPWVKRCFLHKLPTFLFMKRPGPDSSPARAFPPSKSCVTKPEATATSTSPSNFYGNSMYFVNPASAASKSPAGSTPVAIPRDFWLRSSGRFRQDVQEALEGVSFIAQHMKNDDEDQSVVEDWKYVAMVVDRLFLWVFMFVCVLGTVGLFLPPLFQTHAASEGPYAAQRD
T1 sequence (P32297 whole entry): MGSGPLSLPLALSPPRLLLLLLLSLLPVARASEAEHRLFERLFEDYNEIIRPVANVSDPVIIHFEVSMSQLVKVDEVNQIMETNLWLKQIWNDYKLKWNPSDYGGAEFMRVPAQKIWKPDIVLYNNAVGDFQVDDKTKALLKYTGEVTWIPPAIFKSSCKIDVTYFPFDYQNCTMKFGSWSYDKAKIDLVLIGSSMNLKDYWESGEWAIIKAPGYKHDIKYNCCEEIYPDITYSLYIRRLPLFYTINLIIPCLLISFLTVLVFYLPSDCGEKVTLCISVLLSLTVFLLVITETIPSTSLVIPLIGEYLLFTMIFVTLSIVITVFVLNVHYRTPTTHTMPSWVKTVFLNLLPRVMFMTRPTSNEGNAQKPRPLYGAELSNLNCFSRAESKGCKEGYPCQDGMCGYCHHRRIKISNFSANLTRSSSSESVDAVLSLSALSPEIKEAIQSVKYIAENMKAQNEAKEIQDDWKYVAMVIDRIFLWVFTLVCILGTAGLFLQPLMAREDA
Chain of Neuronal acetylcholine receptor; alpha4/beta2 (Rattus norvegicus, UniProt P09483+P12390) (P09483 whole entry): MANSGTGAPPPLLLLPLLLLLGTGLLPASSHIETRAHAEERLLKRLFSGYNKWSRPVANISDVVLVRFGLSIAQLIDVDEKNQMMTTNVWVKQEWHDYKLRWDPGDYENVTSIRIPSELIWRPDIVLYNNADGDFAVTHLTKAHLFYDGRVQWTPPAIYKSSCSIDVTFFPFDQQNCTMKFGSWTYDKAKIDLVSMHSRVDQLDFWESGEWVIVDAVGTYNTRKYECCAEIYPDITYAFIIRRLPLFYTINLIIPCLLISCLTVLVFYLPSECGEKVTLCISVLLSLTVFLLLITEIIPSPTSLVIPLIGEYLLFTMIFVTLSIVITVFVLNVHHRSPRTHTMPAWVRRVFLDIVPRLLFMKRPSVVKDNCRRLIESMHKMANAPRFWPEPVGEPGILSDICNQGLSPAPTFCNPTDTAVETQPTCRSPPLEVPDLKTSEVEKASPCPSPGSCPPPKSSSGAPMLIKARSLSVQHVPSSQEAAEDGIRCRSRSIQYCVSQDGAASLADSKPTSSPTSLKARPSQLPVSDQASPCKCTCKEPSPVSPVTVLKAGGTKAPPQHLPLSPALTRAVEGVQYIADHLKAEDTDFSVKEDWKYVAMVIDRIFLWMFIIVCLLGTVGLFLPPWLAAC
Chain of Neuronal acetylcholine receptor; alpha4/beta2 (Rattus norvegicus, UniProt P09483+P12390) (P12390 whole entry): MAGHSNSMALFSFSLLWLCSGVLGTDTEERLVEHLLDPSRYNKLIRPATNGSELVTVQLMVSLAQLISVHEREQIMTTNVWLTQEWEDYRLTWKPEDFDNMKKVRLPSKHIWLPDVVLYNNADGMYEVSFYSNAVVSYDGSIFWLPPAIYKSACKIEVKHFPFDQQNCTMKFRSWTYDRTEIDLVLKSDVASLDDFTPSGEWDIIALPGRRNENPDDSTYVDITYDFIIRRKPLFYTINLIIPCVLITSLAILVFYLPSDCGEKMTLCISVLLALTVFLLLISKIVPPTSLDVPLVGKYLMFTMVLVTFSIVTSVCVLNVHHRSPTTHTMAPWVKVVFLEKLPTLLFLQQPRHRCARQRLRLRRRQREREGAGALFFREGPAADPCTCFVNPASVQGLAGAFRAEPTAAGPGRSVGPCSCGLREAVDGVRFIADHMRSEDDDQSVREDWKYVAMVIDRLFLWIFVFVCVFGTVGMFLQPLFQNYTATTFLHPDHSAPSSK
T2 sequence (P17787 whole entry): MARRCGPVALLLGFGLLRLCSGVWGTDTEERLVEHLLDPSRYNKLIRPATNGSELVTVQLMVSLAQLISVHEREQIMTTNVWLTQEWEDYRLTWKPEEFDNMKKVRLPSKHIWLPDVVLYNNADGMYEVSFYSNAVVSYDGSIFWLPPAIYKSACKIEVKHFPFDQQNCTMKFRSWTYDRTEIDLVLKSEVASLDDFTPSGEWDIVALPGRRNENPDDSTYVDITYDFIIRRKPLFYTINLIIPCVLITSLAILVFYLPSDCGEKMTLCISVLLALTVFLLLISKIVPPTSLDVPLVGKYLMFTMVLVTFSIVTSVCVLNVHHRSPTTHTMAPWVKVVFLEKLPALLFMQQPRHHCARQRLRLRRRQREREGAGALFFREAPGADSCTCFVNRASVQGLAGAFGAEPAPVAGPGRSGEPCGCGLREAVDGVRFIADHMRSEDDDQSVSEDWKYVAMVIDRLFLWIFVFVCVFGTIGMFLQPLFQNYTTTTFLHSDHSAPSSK
T2 sequence (P43681 whole entry): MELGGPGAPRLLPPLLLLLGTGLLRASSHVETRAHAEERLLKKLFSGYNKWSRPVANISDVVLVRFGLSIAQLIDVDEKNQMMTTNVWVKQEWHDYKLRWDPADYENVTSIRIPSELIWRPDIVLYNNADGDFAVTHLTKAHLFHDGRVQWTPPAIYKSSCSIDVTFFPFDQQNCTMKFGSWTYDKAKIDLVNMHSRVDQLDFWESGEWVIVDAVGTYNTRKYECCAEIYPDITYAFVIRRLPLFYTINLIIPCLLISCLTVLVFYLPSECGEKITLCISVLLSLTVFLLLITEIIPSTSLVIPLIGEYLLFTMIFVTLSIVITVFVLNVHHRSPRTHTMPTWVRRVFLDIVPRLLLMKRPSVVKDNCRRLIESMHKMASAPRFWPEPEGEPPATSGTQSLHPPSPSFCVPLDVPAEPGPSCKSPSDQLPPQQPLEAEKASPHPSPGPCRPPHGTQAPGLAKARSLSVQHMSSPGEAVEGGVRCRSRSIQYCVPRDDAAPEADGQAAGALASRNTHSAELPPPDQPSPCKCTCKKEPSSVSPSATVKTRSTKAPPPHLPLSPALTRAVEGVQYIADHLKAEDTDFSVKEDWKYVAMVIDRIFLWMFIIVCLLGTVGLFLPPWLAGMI
Chain of Cytochrome P450 2D6 (P10635 whole entry): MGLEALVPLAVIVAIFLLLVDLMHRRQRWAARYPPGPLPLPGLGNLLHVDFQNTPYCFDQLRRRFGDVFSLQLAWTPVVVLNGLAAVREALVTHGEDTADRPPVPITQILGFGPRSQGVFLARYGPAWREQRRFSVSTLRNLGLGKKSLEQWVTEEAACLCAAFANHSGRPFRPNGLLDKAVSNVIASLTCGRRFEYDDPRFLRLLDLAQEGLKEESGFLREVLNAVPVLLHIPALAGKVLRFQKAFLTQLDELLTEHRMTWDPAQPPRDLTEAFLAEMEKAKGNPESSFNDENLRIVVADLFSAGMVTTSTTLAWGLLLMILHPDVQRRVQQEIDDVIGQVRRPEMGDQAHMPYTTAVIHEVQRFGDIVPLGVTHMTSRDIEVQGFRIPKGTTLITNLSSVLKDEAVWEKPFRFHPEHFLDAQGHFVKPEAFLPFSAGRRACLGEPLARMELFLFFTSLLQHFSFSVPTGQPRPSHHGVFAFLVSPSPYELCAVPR

Row | SMILES | Ki [1] | Ki [2] | Emax [3] | EC50 [4] | EC50 [5] | Emax [6] | Ki [7] | Ki [8] | also measured
1 | N#Cc1ccoc1C(=O)N1CC2CNCC(C2)C1 | > 10 µM | 39 nM | 8% | 21 µM | 26 µM | 16% | 280 nM | > 10 µM | 
2 | C(=C1/CN2CCC1CC2)/c1cccnc1 |  |  |  |  |  |  |  |  | Ki [9]: 2 nM
3 | O=C(c1occc1Cl)N1CC2CNCC(C2)C1 | 8.7 µM | 15 nM | 3% | 28 µM | 76 µM | 26% | 120 nM | > 10 µM | 
4 | O=C(c1cc(Br)co1)N1CC2CNCC(C2)C1 | 9.3 µM | 3 nM | 34% | 50 µM | 18 µM | 13% | 57 nM | > 10 µM | 
5 | O=C(c1ccc(Cl)o1)N1CC2CNCC2C1 (stereo not given) [AZD1446] | > 10 µM | 30 nM |  | 70 µM |  | 10% | 34 nM | 6.7 µM | Activity [10]: inactive; inhibition [11]: 97%; Emax [12]: 120%; inhibition at 10 µM (hERG (KCNH2)): < 5%; inhibition [13]: 87%; Ki [14]: 700 nM; EC50 [15]: 4.9 µM; Activity [16]: inactive; %max (Rattus norvegicus [17]): 74%; inhibition (INH) (Cytochrome P450 2D6): Not Active; Activity (Rattus norvegicus [18]): Active
6 | CN[C@@H](C)C/C=C/c1cccnc1 |  |  |  |  |  |  |  |  | Ki [19]: 24 nM
7 | Cc1ccoc1C(=O)N1CC2CNCC(C2)C1 | > 10 µM | 190 nM | 9% | 25 µM | 25 µM | 11% | 650 nM | > 10 µM | 
8 | C1=C(c2cccnc2)C2CCC(CC1)N2 (stereo not given) |  |  |  |  |  |  |  |  | Ki [19]: 0.27 nM
9 | O=C(c1occc1F)N1CC2CNCC(C2)C1 | > 10 µM | 50 nM | 15% | 32 µM | 22 µM | 54% | 210 nM | > 10 µM | 
10 | O=C(c1ccc(Cl)o1)N1CC2CNCC(C2)C1 | 6.4 µM | 5 nM | 47% | 15 µM | 1.4 µM | 61% | 7 nM | > 10 µM | Activity [10]: inactive; Activity (Rattus norvegicus [20]): Active; inhibition [21]: 40%; inhibition at 10 µM (hERG (KCNH2)): < 5%; %max (Rattus norvegicus [22]): 75%; inhibition [23]: 35%; Activity [16]: inactive; inhibition (INH) (Cytochrome P450 2D6): Not Active
11 | O=C(c1ccc(Br)o1)N1CC2CNCC(C2)C1 | 6.5 µM | 26 nM | 23% | 30 µM | 8.3 µM | 28% | 100 nM | > 10 µM | 
12 | O=C(c1ccccn1)N1CC2CNCC2C1 (stereo not given) | 21 µM | 250 nM |  | 51 µM |  | 3% | 340 nM | 100 µM | Emax [12]: 44%; EC50 [15]: 34 µM
13 | O=C(C1CC1)N1C[C@H]2CN[C@@H](C2)C1 | 0.11 µM | 7 nM |  | 1.4 µM |  | 140% | 10 nM | 0.04 µM | Emax [12]: 100%; EC50 [15]: 1.7 µM
